Among the data in patent publication US5519022A, “α, α dialkylbenzyl derivatives” (Imperial Chemical Industries Plc, priority 1991, dated 1996) are IC50 values, retold here.

Usually IC50 stands for the midpoint of a concentration-inhibition curve.

The test has as its target T1, 5-LO (Homo sapiens, UniProt P09917).
T1 construct: effects of a test compound against 5-LO and also cyclooxygenase in the presence of blood cells and proteins; endogenous in cells; host or cells: blood cells in heparinised human blood challenged with calcium ionophore A23187
T1 sequence (P09917 1-674): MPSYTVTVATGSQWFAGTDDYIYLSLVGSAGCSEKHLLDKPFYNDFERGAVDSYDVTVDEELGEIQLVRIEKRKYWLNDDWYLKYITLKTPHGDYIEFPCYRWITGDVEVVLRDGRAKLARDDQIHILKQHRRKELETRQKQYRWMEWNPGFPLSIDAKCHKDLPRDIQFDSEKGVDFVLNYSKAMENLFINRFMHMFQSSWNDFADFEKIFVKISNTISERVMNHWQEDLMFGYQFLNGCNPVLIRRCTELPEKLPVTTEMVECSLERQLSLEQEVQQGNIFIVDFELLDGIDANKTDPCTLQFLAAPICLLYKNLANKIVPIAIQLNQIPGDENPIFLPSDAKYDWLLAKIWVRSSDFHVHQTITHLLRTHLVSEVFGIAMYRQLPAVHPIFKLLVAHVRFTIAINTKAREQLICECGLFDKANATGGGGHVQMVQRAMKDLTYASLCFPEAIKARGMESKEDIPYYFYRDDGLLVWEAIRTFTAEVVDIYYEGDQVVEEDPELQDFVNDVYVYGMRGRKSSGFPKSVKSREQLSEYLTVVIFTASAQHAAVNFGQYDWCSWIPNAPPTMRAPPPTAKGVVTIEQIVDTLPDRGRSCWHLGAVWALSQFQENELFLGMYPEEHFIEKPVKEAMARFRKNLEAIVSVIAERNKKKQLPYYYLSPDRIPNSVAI
The experiment in a line: Test a) in vitro inhibition of LTB4 production in A23187-challenged heparinised human blood (radioimmunoassay). As to conditions: calcium ionophore A23187 challenge. Format: cell-based. The method, then:
a) An in vitro assay system involving incubating a test compound with heparinised human blood, prior to challenge with the calcium ionophore A23187 and then indirectly measuring the inhibitory effects on 5-LO by assaying the amount of LTB4 using specific radioimmunoassays described by Carey and Forder (F. Carey and R. A. Forder, Prostaglandins, Leukotrienes Med., 1986, 22, 57; Prostaglandins, 198, 28, 666; Brit. J. Pharmacol. 1985, 84, 34P) which involve the use of a protein-LTB4 conjugate produced using the procedure of Young et alia (Prostaglandins, 1983, 26(4), 605-613). The effects of a test compound on the enzyme cyclooxygenase (which is involved in the alternative metabolic pathway for arachidonic acid and gives rise to prostaglandins, thromboxanes and related metabolites) may be measured at the same time using the specific radioimmunoassay for thromboxane B2 (TxB2) described by Carey and Forder (see above). This test provides an indication of the effects of a test compound against 5-LO and also cyclooxygenase in the presence of blood cells and proteins. It permits the selectivity of the inhibitory effect on 5-LO or cyclooxygenase to be assessed.
Regarding `C=CCC(C#N)(CC=C)c1cccc(OCc2ccc3c(ccc(=O)n3C)c2)c1` [2,2-diallyl-2-[3-(1-methyl-2-oxo-1,2-dihydroquinolin-6-ylmethoxy)phenyl]acetonitrile], the IC50 came to 50 nM.

For the molecule `CCC(C#N)(CC)c1cccc(OCc2ccc3c(ccc(=O)n3C)c2)c1` [2-ethyl-2-[3-(1-methyl-2-oxo-1,2-dihydroquinolin-6-ylmethoxy)phenyl]butyronitrile], the IC50 came to 500 nM.

Consider `CCC(C)(C#N)c1cccc(OCc2ccc3c(ccc(=O)n3C)c2)c1` (stereo not shown) [2-methyl-2-[3-(1-methyl-2-oxo-1,2-dihydroquinolin-6-ylmethoxy)phenyl]butyronitrile], for which the 50% inhibitory concentration (IC50) was 80 nM.

`CCC(CC)(C(C)=O)c1cccc(OCc2ccc3c(ccc(=O)n3C)c2)c1` [3-ethyl-3-[3-(1-methyl-2-oxo-1,2-dihydroquinolin-6-ylmethoxy)phenyl]pentan-2-one]: the IC50 was 150 nM.
